Structures are written as SMILES. Where only a bound is given, the exact number is not on record here.

The nature of data set [1]: Antiproliferative activity against human ALL5 cells after 120 hrs by MTT assay. It counts as functional, cell-based. The conditions noted are these: ALL5, 120 h.
Data set [2] deals with LoVo. Put plainly: Antiproliferative activity against human LoVo cells after 72 hrs by SRB assay. Type of data set: functional, cell-based.
The nature of data set [3]: Antiproliferative activity against human LoVo/DX cells after 72 hrs by SRB assay. It counts as functional, cell-based.
In data set [4] the test system is JIMT-1. Put plainly: Antiproliferative activity against human JIMT1 cells after 72 hrs by SRB assay. The conditions noted are these: JIMT-1, 72 h. Type of data set: functional, cell-based.
For data set [5], the system named is SK-BR-3. Put plainly: Antiproliferative activity against human SK-BR-3 cells after 72 hrs by SRB assay. Type of data set: functional, cell-based. Particulars: SK-BR-3, 72 h.
The test system of data set [6] is MCF7. Put plainly: Antiproliferative activity against human MCF7 cells after 72 hrs by SRB assay. It counts as functional, cell-based. Particulars: MCF7, 72 h.
Data set [7] has as its system MCF-10A. Put plainly: Antiproliferative activity against human MCF10A cells at 100 ug/ml after 72 hrs by SRB assay relative to control. Type of data set: cell-based.
Data set [8] in a line: Cell cycle arrest in human ALL5 cells assessed as accumulation at sub-G1 phase at 5 times antiproliferative IC50 after 24 hrs by propidium iodide staining based flow cytometry (reference value: 6.07%). It counts as functional.
Data set [9] can be described thus: Cell cycle arrest in human ALL5 cells assessed as accumulation at G0/G1 phase at 5 times antiproliferative IC50 after 24 hrs by propidium iodide staining based flow cytometry (reference value: 79.7%). It counts as functional.
Data set [10] in a line: Cell cycle arrest in human ALL5 cells assessed as accumulation at S-phase at 5 times antiproliferative IC50 after 24 hrs by propidium iodide staining based flow cytometry (reference value: 6.76%). Type of data set: functional.
A short description of data set [11]: Cell cycle arrest in human ALL5 cells assessed as accumulation at G2/M-phase at 5 times antiproliferative IC50 after 24 hrs by propidium iodide staining based flow cytometry (reference value: 7.98%). Type of data set: functional.
A short description of data set [12]: Cell cycle arrest in human ALL5 cells assessed as accumulation at sub-G1 phase at 5 times antiproliferative IC50 after 48 hrs by propidium iodide staining based flow cytometry (reference value: 7.8%). It counts as functional.
The nature of data set [13]: Cell cycle arrest in human ALL5 cells assessed as accumulation at G0/G1 phase at 5 times antiproliferative IC50 after 48 hrs by propidium iodide staining based flow cytometry (reference value: 69.6%). Type of data set: functional.
Data set [14] can be described thus: Cell cycle arrest in human ALL5 cells assessed as accumulation at S-phase at 5 times antiproliferative IC50 after 48 hrs by propidium iodide staining based flow cytometry (reference value: 9.82%). It counts as functional.
Data set [15] is described as follows: Cell cycle arrest in human ALL5 cells assessed as accumulation at G2/M-phase at 5 times antiproliferative IC50 after 48 hrs by propidium iodide staining based flow cytometry (reference value: 13.2%). Type of data set: functional.
Data set [16] is described as follows: Cell cycle arrest in human ALL5 cells assessed as accumulation at sub-G1 phase at 5 times antiproliferative IC50 after 96 hrs by propidium iodide staining based flow cytometry (reference value: 12%). Type of data set: functional.
The nature of data set [17]: Cell cycle arrest in human ALL5 cells assessed as accumulation at G0/G1 phase at 5 times antiproliferative IC50 after 96 hrs by propidium iodide staining based flow cytometry (reference value: 69.8%). Type of data set: functional.
Data set [18] is described as follows: Cell cycle arrest in human ALL5 cells assessed as accumulation at S-phase at 5 times antiproliferative IC50 after 96 hrs by propidium iodide staining based flow cytometry (reference value: 7.52%). Type of data set: functional.
The nature of data set [19]: Cell cycle arrest in human ALL5 cells assessed as accumulation at G2/M-phase at 5 times antiproliferative IC50 after 96 hrs by propidium iodide staining based flow cytometry (reference value: 11.1%). It counts as functional.
Data set [20] can be described thus: Resistance index, ratio of IC50 for human LoVo/DX cells to IC50 for human LoVo cells. Type of data set: functional.
Data set [21] deals with MCF-10A. Put plainly: Antiproliferative activity against human MCF10A cells after 72 hrs by SRB assay. It counts as cell-based.
A short description of data set [22]: Selectivity index, ratio of IC50 for human MCF10A cells to IC50 for human LoVo/DX cells. The conditions noted are these: MCF10A cells versus LoVo/DX cells, read-out: Ratio IC50. Type of data set: toxicity.
Data set [23] is described as follows: Selectivity index, ratio of IC50 for human MCF10A cells to IC50 for human ALL5 cells. It counts as toxicity. Particulars: MCF10A cells versus ALL5 cells, read-out: Ratio IC50.
A short description of data set [24]: Selectivity index, ratio of IC50 for human MCF10A cells to IC50 for human LoVo cells. Type of data set: toxicity. Particulars: MCF10A cells versus LoVo cells, read-out: Ratio IC50.
Data set [25] in a line: Selectivity index, ratio of IC50 for human MCF10A cells to IC50 for human JIMT1 cells. Particulars: MCF10A cells versus JIMT1 cells, read-out: Ratio IC50. It counts as toxicity.
A short description of data set [26]: Selectivity index, ratio of IC50 for human MCF10A cells to IC50 for human SK-BR-3 cells. The conditions noted are these: MCF10A cells versus SK-BR-3 cells, read-out: Ratio IC50. It counts as toxicity.
Data set [27] can be described thus: Selectivity index, ratio of IC50 for human MCF10A cells to IC50 for human MCF7 cells. Particulars: MCF10A cells versus MCF7 cells, read-out: Ratio IC50. It counts as toxicity.

As for `CCOC(=O)O[C@@H]1C=C[C@]2(O[C@H]([C@@H](CC)C(=O)[C@@H](C)[C@@H](O)[C@H](C)[C@@H]3O[C@@H]([C@@H](CC)C(=O)NCCc4ccc(F)cc4)CC[C@@H]3C)[C@@H](C)C[C@H]2C)O[C@@]12CC[C@@](C)([C@H]1CC[C@](O)(CC)[C@H](C)O1)O2`, the half-inhibitory concentration (IC50) came out at 3.7 µM in [1]; 4.7 µM in data set [2]; 6.5 µM in data set [3]; 7 µM in data set [4]; 9.9 µM in [5]; 3.9 µM in [6]. The Activity result in [7] was “<= 50%”; in [8], 6.39%; in [9], 82.5%; in data set [10] it was 4.95%; in data set [11], 6.54%; in data set [12], 7.78%. The Activity in [13] is on record as 86.4%; in [14], 1.02%; in [15], 4.85%; in data set [16] it was 27.5%; in data set [17], 69.4%; in data set [18], 1.35%. The Activity in [19] was 1.94%. In data set [20], the “Ratio IC50” value is listed as 1.4.
Take `C#CCNC(=O)[C@H](CC)[C@H]1CC[C@H](C)[C@H]([C@@H](C)[C@H](O)[C@H](C)C(=O)[C@H](CC)[C@H]2O[C@]3(C=C[C@@H](OC(=O)OCC)[C@]4(CC[C@@](C)([C@H]5CC[C@](O)(CC)[C@H](C)O5)O4)O3)[C@H](C)C[C@@H]2C)O1`: the IC50 in [1] is 17 µM; in data set [2], 4.7 µM; in [3], 3.8 µM; in [4], 7.9 µM; in data set [5], 16 µM; in data set [6], 4.9 µM. In data set [7], the Activity result is reported as “<= 50%”. For the same molecule, in data set [20], the “Ratio IC50” value came out at 0.81.
In the case of `C#CCOC(=O)[C@H](CC)[C@H]1CC[C@H](C)[C@H]([C@@H](C)[C@H](O)[C@H](C)C(=O)[C@H](CC)[C@H]2O[C@]3(C=C[C@@H](O)[C@]4(CC[C@@](C)([C@H]5CC[C@](O)(CC)[C@H](C)O5)O4)O3)[C@H](C)C[C@@H]2C)O1`, the half-inhibitory concentration (IC50) amounted to 3.3 µM in data set [1]; 3.9 µM in data set [2]; 2.6 µM in data set [3]; 6.2 µM in data set [4]; 8.5 µM in data set [5]; 4.3 µM in data set [6]. In data set [21], this molecule yielded an IC50 of 54 µM. The Activity in data set [8] is reported as 16.2%; in data set [9] it was 71.3%; in [10], 4.34%; in data set [11], 8.24%; in [12] it was 39.8%; in data set [13] it was 51.7%. For the same molecule, the Activity in data set [14] was 3.58%; in data set [15] it was 5.35%; in data set [16] it was 49.8%; in data set [17], 42.8%; in [18] it was 2.95%; in data set [19], 4.64%. Besides, the selectivity ratio in data set [22] came to 21; in data set [23], 16; in data set [24], 14; in data set [25] it was 8.7; in data set [26], 6.4; in data set [27], 13. Besides, in data set [20], the “Ratio IC50” value was determined as 0.67.

The values are drawn from ChEMBL document CHEMBL4270561, “Biological activity of doubly modified salinomycin analogs - Evaluation in vitro and ex vivo” (Eur J Med Chem, 2018).
